Data from patent US20220389009A1, “SUBSTITUTED 1,6-NAPHTHYRIDINE INHIBITORS OF CDK5” (Goldfinch Bio, Inc., priority 2019, published 2022).
pIC50: −log10 of the molar value. Where two headings read alike, the source gives them in different places.

Legend:
CDK2/CycA2 = CDK2/CycA2 (Homo sapiens, UniProt P24941); test: CDK2 mobility shift assay (enzymatic activity of CDK2/CycA2); type: biochemical
Protocol: (§1) Compound potency was measured via a change in the enzymatic activity of CDK5/p25, and optionally of CDK2/CycA2. Enzymes, CDK5/p25 and CDK2/CycA2, were sourced from Carna Biosciences (Cat #04-106 and 04-103, respectively). Test compound stocks were diluted in 100% DMSO and serially diluted 3-fold in a 384-well plate using a TECAN EVO200 (TECAN). Staurosporine was used as a reference control compound in all assays.
(§2) Twenty nL of compound were transferred into a 384-well plate (Greiner 781201) using an Echo550 (Labcyte Inc). Enzyme, ATP, and 10 mM MgCl2 were preincubated at room temperature with the compound in assay buffer (50 mM HEPES pH 7.5, 1 mM EGTA, 0.01% Brij-35, 0.05% BSA, 2 mM DTT) for 30 minutes. Peptide substrate (FL peptide 29 (Perkin Elmer) for CDK5/p25; FL Peptide 18 (Perkin Elmer) for CDK2/CycA2) was added to initiate the reaction. The final assay contained 0.154 nM CDK5/p25 or 1.25 nM CDK2/CycA2, […] (for CDK5/p25) or 37 μM (for CDK2/CycA2) ATP, and 1.5 μM of the appropriate peptide substrate. The final DMSO concentration was <1%.
(§3) The CDK5/p25 reaction was incubated at room temperature for 60 min. The CDK2/CycA2 reaction was incubated at room temperature for 120 min. The reactions were quenched by the addition of 70 μL stopping buffer containing 0.5 M EDTA. Samples were analyzed using the EZ Reader (Perkin Elmer).
(§4) The results were expressed as % vehicle, where % vehicle=100×(U−C2)/(C1−C2), where U is the signal of sample, C1 is the average of the high controls (signal with no compound added), and C2 is the average of low controls (signal with the buffer in place of enzyme). The ICso is determined by fitting the percentage of inhibition as a function of compound concentrations using a 4-parameter fit defined as follows.
(§5) Y=Bottom+(Top−Bottom)/(1+10^((LobIC50-X)*Hill Slope)), where X is the log of the compound concentration, Y is the % vehicle or response at X, Top and Bottom are the plateaus in the same units as Y, and the Hill's Slope is unitless, and the ICso is the half-maximal inhibitory concentration.

CDK5/p25 = CDK5/p25 (Homo sapiens, UniProt Q00535); test: CDK5 mobility shift assay (enzymatic activity of CDK5/p25); type: biochemical; settings: for CDK5/CDK2 specificity: fold more active against CDK5 than CDK2
CDK5/p25, sequence (Q00535 whole entry): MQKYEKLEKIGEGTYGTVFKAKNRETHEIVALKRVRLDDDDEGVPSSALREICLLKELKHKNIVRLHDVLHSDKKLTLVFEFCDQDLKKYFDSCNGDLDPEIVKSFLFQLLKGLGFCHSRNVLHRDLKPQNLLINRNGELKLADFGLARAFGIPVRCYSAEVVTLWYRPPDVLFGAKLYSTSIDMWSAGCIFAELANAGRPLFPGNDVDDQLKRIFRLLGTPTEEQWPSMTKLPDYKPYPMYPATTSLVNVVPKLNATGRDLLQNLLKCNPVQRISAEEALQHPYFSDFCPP
CDK5/p25, sequence (Q15078 99-307 partner limits assumed): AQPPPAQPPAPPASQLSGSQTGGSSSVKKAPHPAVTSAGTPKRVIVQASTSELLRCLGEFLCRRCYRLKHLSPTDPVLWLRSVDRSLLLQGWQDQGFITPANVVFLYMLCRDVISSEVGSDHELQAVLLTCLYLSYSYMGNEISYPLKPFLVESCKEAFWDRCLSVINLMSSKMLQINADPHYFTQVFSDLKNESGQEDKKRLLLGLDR
Protocol: as §1, §2, §3, §4, §5

[1] = 1.25 nM CDK2/CycA2, 37 μM ATP, FL Peptide 18, 120 min at room temperature, read-out: CDK2 IC50
[2] = 0.154 nM CDK5/p25, FL peptide 29, 60 min at room temperature, read-out: CDK5 IC50

## CN1CCC(C(C)(F)c2ccc3cnc(Nc4ccc(-n5cccn5)cc4F)cc3n2)CC1 (single isomer, unassigned) [Compound 363, 2-[1-fluoro-1-(1-methylpiperidin-4-yl)ethyl]-N-[2-fluoro-4-(pyrazol-1-yl)phenyl]-1,6-naphthyridin-7-amine]
CDK2/CycA2; [1]
  pIC50: < 6.00
CDK5/p25; [2]
  pIC50: 7.00 to 8.00
CDK5/p25
  CDK5/CDK2 specificity: ++ (greater than 10-fold and less than or equal to 100-fold more active against CDK5 than CDK2)

## COC(c1ccc2cnc(Nc3ccc(-n4cccn4)cc3F)cc2n1)C1CCN(C)CC1 (single isomer, unassigned) [Compound 387, N-[2-fluoro-4-(pyrazol-1-yl)phenyl]-2-[methoxy(1-methylpiperidin-4-yl)methyl]-1,6-naphthyridin-7-amine]
CDK2/CycA2; [1]
  pIC50: < 6.00
CDK5/p25; [2]
  pIC50: 6.00 to 7.00
CDK5/p25
  CDK5/CDK2 specificity: ++ (greater than 10-fold and less than or equal to 100-fold more active against CDK5 than CDK2)

## COC(c1ccc2cnc(Nc3ccc(-n4cccn4)cc3F)cc2n1)C1CCN(C)CC1 (single isomer, unassigned) [Compound 391, N-[2-fluoro-4-(pyrazol-1-yl)phenyl]-2-[methoxy(1-methylpiperidin-4-yl)methyl]-1,6-naphthyridin-7-amine]
CDK2/CycA2; [1]
  pIC50: < 6.00
CDK5/p25; [2]
  pIC50: 6.00 to 7.00
CDK5/p25
  CDK5/CDK2 specificity: ++ (greater than 10-fold and less than or equal to 100-fold more active against CDK5 than CDK2)

## CN(c1ccc2cnc(Nc3ccccc3F)cc2n1)C1CCNCC1 [Compound 100, N7-(2-fluorophenyl)-N2-methyl-N2-(piperidin-4-yl)-1,6-naphthyridine-2,7-diamine]
CDK2/CycA2; [1]
  pIC50: < 6.00
CDK5/p25; [2]
  pIC50: 6.00 to 7.00
CDK5/p25
  CDK5/CDK2 specificity: ++ (greater than 10-fold and less than or equal to 100-fold more active against CDK5 than CDK2)

## O=C(O)CN(c1ccc2cnc(Nc3ccc(-n4ccc(CO)n4)cc3F)cc2n1)C1CCNCC1 [Compound 101, [[7-([2-fluoro-4-[3-(hydroxymethyl)pyrazol-1-yl]phenyl]amino)-1,6-naphthyridin-2-yl](piperidin-4-yl)amino]acetic acid]
CDK2/CycA2; CDK2 IC50
  pIC50: < 6.00
CDK5/p25; CDK5 IC50
  pIC50: 7.00 to 8.00
CDK5/p25
  CDK5/CDK2 specificity: ++ (greater than 10-fold and less than or equal to 100-fold more active against CDK5 than CDK2)

## OCc1ccn(-c2ccc(Nc3cc4nc(NC5CCNCC5)ccc4cn3)c(F)c2)n1 [Compound 102, [1-(3-fluoro-4-[[2-(piperidin-4-ylamino)-1,6-naphthyridin-7-yl]amino]phenyl)pyrazol-3-yl]methanol]
CDK2/CycA2; [1]
  pIC50: 6.00 to 7.00
CDK5/p25; [2]
  pIC50: > 8.00
CDK5/p25
  CDK5/CDK2 specificity: ++ (greater than 10-fold and less than or equal to 100-fold more active against CDK5 than CDK2)

## OCCN(c1ccc2cnc(Nc3ccc(-n4nccc4CO)cc3F)cc2n1)C1CCNCC1 [Compound 103, 2-[[7-([2-fluoro-4-[5-(hydroxymethyl)pyrazol-1-yl]phenyl]amino)-1,6-naphthyridin-2-yl](piperidin-4-yl)amino]ethanol]
CDK2/CycA2; [1]
  pIC50: 6.00 to 7.00
CDK5/p25; [2]
  pIC50: 7.00 to 8.00
CDK5/p25
  CDK5/CDK2 specificity: ++ (greater than 10-fold and less than or equal to 100-fold more active against CDK5 than CDK2)

## OCCN(c1ccc2cnc(Nc3ccc(-n4ccc(CO)n4)cc3F)cc2n1)C1CCNCC1 [Compound 105, 2-[[7-([2-fluoro-4-[3-(hydroxymethyl)pyrazol-1-yl]phenyl]amino)-1,6-naphthyridin-2-yl](piperidin-4-yl)amino]ethanol]
CDK2/CycA2; [1]
  pIC50: 6.00 to 7.00
CDK5/p25; [2]
  pIC50: 7.00 to 8.00
CDK5/p25
  CDK5/CDK2 specificity: ++ (greater than 10-fold and less than or equal to 100-fold more active against CDK5 than CDK2)

## CS(=O)(=O)N(c1ccc2cnc(Nc3ccc(-n4cccn4)cc3F)cc2n1)C1CCNCC1 [Compound 106, N-(7-[[2-fluoro-4-(pyrazol-1-yl)phenyl]amino]-1,6-naphthyridin-2-yl)-N-(piperidin-4-yl)methanesulfonamide]
CDK2/CycA2; [1]
  pIC50: < 6.00
CDK5/p25; [2]
  pIC50: < 6.00
CDK5/p25
  CDK5/CDK2 specificity: + (10-fold or less more active against CDK5 than CDK2)

## Fc1cc(-n2cccn2)ccc1Nc1cc2nc(SC3CCNCC3)ccc2cn1 [Compound 107, N-[2-fluoro-4-(pyrazol-1-yl)phenyl]-2-(piperidin-4-ylsulfanyl)-1,6-naphthyridin-7-amine]
CDK2/CycA2; [1]
  pIC50: 7.00 to 8.00
CDK5/p25; [2]
  pIC50: > 8.00
CDK5/p25
  CDK5/CDK2 specificity: ++ (greater than 10-fold and less than or equal to 100-fold more active against CDK5 than CDK2)

## OCc1ccn(-c2ccc(Nc3cc4nc(SC5CCNCC5)ccc4cn3)c(F)c2)n1 [Compound 108, [1-(3-fluoro-4-[[2-(piperidin-4-ylsulfanyl)-1,6-naphthyridin-7-yl]amino]phenyl)pyrazol-3-yl]methanol]
CDK2/CycA2; [1]
  pIC50: 7.00 to 8.00
CDK5/p25; [2]
  pIC50: > 8.00
CDK5/p25
  CDK5/CDK2 specificity: ++ (greater than 10-fold and less than or equal to 100-fold more active against CDK5 than CDK2)

## O=C(O)CN(c1ccc2cnc(Nc3ccc(-n4ccc(CO)n4)cc3F)cc2n1)[C@H]1CC[C@H](O)CC1 [Compound 110, [[7-([2-fluoro-4-[3-(hydroxymethyl)pyrazol-1-yl]phenyl]amino)-1,6-naphthyridin-2-yl][(1r,4r)-4-hydroxycyclohexyl]amino]acetic acid]
CDK2/CycA2; [1]
  pIC50: < 6.00
CDK5/p25; [2]
  pIC50: 6.00 to 7.00
CDK5/p25
  CDK5/CDK2 specificity: + (10-fold or less more active against CDK5 than CDK2)

## COC(=O)CN(c1ccc2cnc(Nc3ccc(-n4ccc(CO)n4)cc3F)cc2n1)C1CCNCC1 [Compound 112, Methyl 2-[[7-([2-fluoro-4-[3-(hydroxymethyl)pyrazol-1-yl]phenyl]amino)-1,6-naphthyridin-2-yl](piperidin-4-yl)amino]acetate]
CDK2/CycA2; [1]
  pIC50: < 6.00
CDK5/p25; [2]
  pIC50: 6.00 to 7.00
CDK5/p25
  CDK5/CDK2 specificity: ++ (greater than 10-fold and less than or equal to 100-fold more active against CDK5 than CDK2)

## O=C(O)[C@@H]1CNCC[C@H]1Nc1ccc2cnc(Nc3ccc(-n4ccc(CO)n4)cc3F)cc2n1 [Compound 114, (3R,4R)-4-[[7-([2-fluoro-4-[3-(hydroxymethyl)pyrazol-1-yl]phenyl]amino)-1,6-naphthyridin-2-yl]amino]piperidine-3-carboxylic acid]
CDK2/CycA2; [1]
  pIC50: < 6.00
CDK5/p25; [2]
  pIC50: < 6.00
CDK5/p25
  CDK5/CDK2 specificity: + (10-fold or less more active against CDK5 than CDK2)

## [O-][S@@+](c1ccc2cnc(Nc3ccc(-n4cccn4)cc3F)cc2n1)C1CCNCC1 [Compound 115, N-[2-fluoro-4-(pyrazol-1-yl)phenyl]-2-[(R)-piperidine-4-sulfinyl]-1,6-naphthyridin-7-amine]
CDK2/CycA2; [1]
  pIC50: 7.00 to 8.00
CDK5/p25; [2]
  pIC50: > 8.00
CDK5/p25
  CDK5/CDK2 specificity: ++ (greater than 10-fold and less than or equal to 100-fold more active against CDK5 than CDK2)

## O=C(O)[C@H]1CNCC[C@@H]1Nc1ccc2cnc(Nc3ccc(-n4ccc(CO)n4)cc3F)cc2n1 [Compound 116, (3S,4S)-4-[[7-([2-fluoro-4-[3-(hydroxymethyl)pyrazol-1-yl]phenyl]amino)-1,6-naphthyridin-2-yl]amino]piperidine-3-carboxylic acid]
CDK2/CycA2; [1]
  pIC50: < 6.00
CDK5/p25; [2]
  pIC50: 6.00 to 7.00
CDK5/p25
  CDK5/CDK2 specificity: + (10-fold or less more active against CDK5 than CDK2)

## [O-][S@+](c1ccc2cnc(Nc3ccc(-n4cccn4)cc3F)cc2n1)C1CCNCC1 [Compound 117, N-[2-fluoro-4-(pyrazol-1-yl)phenyl]-2-[(S)-piperidine-4-sulfinyl]-1,6-naphthyridin-7-amine]
CDK2/CycA2; [1]
  pIC50: < 6.00
CDK5/p25; [2]
  pIC50: 6.00 to 7.00
CDK5/p25
  CDK5/CDK2 specificity: + (10-fold or less more active against CDK5 than CDK2)
